The subject of this data set is rodent carcinogenicity bioassays, tumor incidence. As to the kind of experiment: CCRIS carcinogenicity studies. An outline of the steps:
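NCI-built, expert-reviewed records of carcinogenicity and related test outcomes (mutagenicity, tumor promotion/inhibition) compiled from published and report sources, historical span 1985-2011, not updated.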

The source made the active and inactive calls. The rule behind the calls is not given here.

In the case of `CCOC(N)=O`, the carcinogen call was “active; positive” (Species: MOUSE, Strain/Sex: ICR/FEMALE, Route: INHALATION, Dose: 0, 0.25 UG/ML AIR FOR 5 D (TOTAL DOSE 1.25 UG/ML/D) (STUDY DURATION: 5 MO), Tumor Site: Type of Lesion: LUNG: TUMOR, HEMATOPOIETIC SYSTEM: LEUKEMIA); “active; positive” (Species: MOUSE, Strain/Sex: ICR/FEMALE, Route: INHALATION, Dose: 0, 0.25 UG/ML AIR FOR 10 D (TOTAL DOSE 2.5 UG/ML/D) (STUDY DURATION: 5 MO), Tumor Site: Type of Lesion: LUNG: TUMOR); “active; positive” (Species: MOUSE, Strain/Sex: ICR/FEMALE, Route: INHALATION, Dose: 0, 1.29 UG/ML AIR FOR 0.25 D (TOTAL DOSE 0.32 UG/ML/D) (STUDY DURATION: 5 MO), Tumor Site: Type of Lesion: LUNG: TUMOR, HEMATOPOIETIC SYSTEM: LEUKEMIA); “active; positive” (Species: MOUSE, Strain/Sex: ICR/FEMALE, Route: INHALATION, Dose: 0, 1.29 UG/ML AIR FOR 1 D (TOTAL DOSE 1.29 UG/ML/D) (STUDY DURATION; 5 MO), Dose: 0, 1.29 UG/ML AIR FOR 1 D (TOTAL DOSE 1.29 UG/ML/D) (STUDY DURATION; 5 MO), Tumor Site: Type of Lesion: LUNG: TUMOR, HEMATOPOIETIC SYSTEM: LEUKEMIA); “active; positive” (Species: MOUSE, Strain/Sex: ICR/FEMALE, Route: INHALATION, Dose: 0, 1.29 UG/ML AIR FOR 2 D (TOTAL DOSE 2.58 UG/ML/D) (STUDY DURATION: 5 MO), Tumor Site: Type of Lesion: LUNG: TUMOR, HEMATOPOIETIC SYSTEM: LEUKEMIA); “active; positive” (Species: MOUSE, Strain/Sex: ICR/FEMALE, Route: INHALATION, Dose: 0, 1.29 UG/ML AIR FOR 4 D (TOTAL DOSE 5.16 UG/ML/D) (STUDY DURATION: 5 MO), Tumor Site: Type of Lesion: LUNG: TUMOR, HEMATOPOIETIC SYSTEM: LEUKEMIA). Moreover, the carcinogen call by setting is: (Species: MOUSE, Strain/Sex: ICR/FEMALE, Route: INHALATION, Dose: 0, 1.29 UG/ML AIR FOR 5 D (TOTAL DOSE 6.45 UG/ML/D) (STUDY DURATION: 5 MO), Tumor Site: Type of Lesion: LUNG: TUMOR, HEMATOPOIETIC SYSTEM: LEUKEMIA) “active; positive”; (Species: MOUSE, Strain/Sex: ICR/MALE, Route: INHALATION, Dose: 0, 0.25 UG/ML AIR FOR 10 D (TOTAL DOSE 2.5 UG/ML/D) (STUDY DURATION: 12 MO), Tumor Site: Type of Lesion: LUNG: ADENOCARCINOMA, HEMATOPOIETIC SYSTEM: LEUKEMIA, LIVER: HEPATOMA, Tumor Site: Type of Lesion: LUNG: ADENOCARCINOMA, HEMATOPOIETIC SYSTEM: LEUKEMIA, LIVER: HEPATOMA) “active; positive”; (Species: MOUSE, Strain/Sex: ICR/MALE, Route: INHALATION, Dose: 0, 1.29 UG/ML AIR FOR 4 D (TOTAL DOSE 5.16 UG/ML/D) (STUDY DURATION: 12 MO), Tumor Site: Type of Lesion: LUNG: ADENOCARCINOMA, HEMATOPOIETIC SYSTEM: LEUKEMIA, LIVER: HEPATOMA, Tumor Site: Type of Lesion: LUNG: ADENOCARCINOMA, HEMATOPOIETIC SYSTEM: LEUKEMIA, LIVER: HEPATOMA) “active; positive”; (Species: MOUSE, Strain/Sex: STRAIN-A/MALE, Route: INTRAPERITONEAL, Dose: 0, 1.12, 4.6 MMOL/KG IN ISOTONIC SALINE ONCE AT 6 WK OF AGE (STUDY DURATION: 16 WK), Dose: 0, 1.12, 4.6 MMOL/KG IN ISOTONIC SALINE ONCE AT 6 WK OF AGE (STUDY DURATION: 16 WK), Tumor Site: Type of Lesion: LUNG: ADENOMA) “active; positive”; (Species: MOUSE, Strain/Sex: SWISS WEBSTER/FEMALE, Route: INTRAVENOUS, Dose: 0, 3.3 MMOL ONCE ADMINISTERED TO VIRGIN FEMALES AT 12 WK OF AGE (STUDY DURATION: 6 MO), Tumor Site: Type of Lesion: LUNG: ADENOMA) “active; positive”; (Species: MOUSE, Strain/Sex: SWISS WEBSTER/FEMALE, Route: INTRAVENOUS, Dose: 0, 3.3 MMOL/KG ONCE ADMINISTERED TO MOTHERS ON GESTATIONAL DAY 14 (STUDY DURATION: 6 MO), Tumor Site: Type of Lesion: LUNG: ADENOMA) “active; positive”. Further, the carcinogen call is “active; positive” (Species: MOUSE, Strain/Sex: SWISS WEBSTER/FEMALE, Route: TRANSPLACENTAL, Dose: 0, 3.3 MMOL/KG ONCE BY INTRAVENOUS ADMINISTRATION TO MOTHERS ON GESTATIONAL DAY 14 (STUDY DURATION: 6 MO), Tumor Site: Type of Lesion: LUNG: ADENOMA); “active; positive” (Species: MOUSE, Strain/Sex: SWISS WEBSTER/MALE, Route: TRANSPLACENTAL, Dose: 0, 3.3 MMOL/KG ONCE BY INTRAVENOUS ADMINISTRATION TO MOTHERS ON GESTATIONAL DAY 14 (STUDY DURATION: 6 Mo), Tumor Site: Type of Lesion: LUNG: ADENOMA); “active; positive” (Species: MOUSE, Strain/Sex: SWISS/MALE,FEMALE, Route: ORAL, Dose: 0, 0.4% IN DRINKING WATER, 2 10-D TREATMENTS, Dose: 0, 0.4% IN DRINKING WATER, 2 10-D TREATMENTS, Tumor Site: Type of Lesion: LUNG: ADENOMA, LYMPHOMA, LIVER: HEMANGIOMA, INTEGUMENTARY SYSTEM (SKIN): PAPILLOMA, SEBACEOUS CARCINOMA, Tumor Site: Type of Lesion: LUNG: ADENOMA, LYMPHOMA, LIVER: HEMANGIOMA, INTEGUMENTARY SYSTEM (SKIN): PAPILLOMA, SEBACEOUS CARCINOMA); “inactive; negative” (Species: Mouse, Strain/Sex: 129 x MF1 Gstp-null (12-16 males and females), Route: Intraperitoneal, Dose: 10 mg/kg, once, study duration 5 mo, Tumor Site: Type of Lesion: Lung: adenoma (incidence 92% vs 27% in controls, multiplicity 3.8 vs 0.3 in controls)); “inactive; negative” (Species: Mouse, Strain/Sex: 129 x MF1 wild type (14-16 males and females), Route: Intraperitoneal, Dose: 10 mg/kg, once, study duration 5 mo, Tumor Site: Type of Lesion: Lung: adenoma (incidence 29% vs 25% in controls, multiplicity 0.4 vs 0.3 in controls)); “active; positive” (Species: RAT, Route: INTRAPERITONEAL, ORAL, Tumor Site: Type of Lesion: LIVER). Also, the carcinogen call by setting is: (Species: RAT, Route: INTRAPERITONEAL, Tumor Site: Type of Lesion: LIVER, NERVOUS SYSTEM) “active; positive”; (Species: RAT, Route: SUBCUTANEOUS, Tumor Site: Type of Lesion: EYE (IRIS)) “active; positive”.

For the origin of these results see PubChem BioAssay AID1259411 (Chemical Carcinogenesis Research Information System (CCRIS), 2018).
